Results taken from US10808007B2, “Desacetoxytubulysin H and analogs thereof” (WILLIAM MARSH RICE UNIVERSITY, priority 2015, dated 2020).
Where two headings read alike, the source gives them in different places.

Columns and labels:
Assay type in all cases: cell-based
[1] = test system: MES SA DX (multidrug resistant uterine sarcoma cells); experiment: Cytotoxic assay (CellTiter-Glo, 72 h), MES SA DX; conditions: Homo sapiens
[2] = test system: MES SA (uterine sarcoma cells); experiment: Cytotoxic assay (CellTiter-Glo, 72 h), MES SA; conditions: Homo sapiens, MES-SA, read-out: IC50 MES SA
[3] = test system: HEK 293T (human embryonic kidney cells); experiment: Cytotoxic assay (CellTiter-Glo, 72 h), HEK 293T; conditions: Homo sapiens, HEK-293T, read-out: IC50 HEK 293T
[4] = test system: NCI-60 human cancer cell line panel; experiment: NCI-60 one-dose test; conditions: one-dose test (10 μM), NCI-60 panel
Protocol: (§1) A number of the synthesized compounds (i.e. Tb1-Tb23) were evaluated for their activity against a variety of cancer cell lines, namely the NCI-60 human cancer cell line panel representing leukemia, melanoma, lung, colon, brain, ovary, breast, prostate and kidney types of cancer through the In Vitro Cell Line Screening Project (IVCLSP) of the National Cancer Institute (NCI), and a summary of the results is shown in Table 1. […] As there was interest in the activity in certain other cell lines, these and the remaining compounds (Tb1-Tb41, PTb-D42 and PTb-D43) were subjected to further testing against MES SA (uterine sarcoma cells), MES SA DX (multidrug resistant uterine sarcoma cells), and HEK 293T (human embryonic kidney cells). […] Tubulysins are known to be substrates for Pgp pumps (Xiangming, et al., 2013; Kaur, et al., 2006; Szakacs, et al., 2006) as supported by the observed low activities of all tubulysins tested except Tb28, Tb32 and Tb33.

[5] = test system: breast cancer cell lines; experiment: NCI-60 cytotoxicity, breast cancer; conditions: Homo sapiens; NCI-60, selected value
Protocol: as §1

[6] = test system: prostate cancer cell lines; experiment: NCI-60 cytotoxicity, prostate cancer; conditions: Homo sapiens; NCI-60, selected value
Protocol: as §1

[7] = test system: renal cancer cell lines; experiment: NCI-60 cytotoxicity, renal cancer; conditions: Homo sapiens; NCI-60, selected value
Protocol: as §1

[8] = test system: CNS cancer cell lines; experiment: NCI-60 cytotoxicity, CNS cancer; conditions: Homo sapiens; NCI-60, selected value
Protocol: as §1

[9] = test system: non-small cell lung cancer cell lines; experiment: NCI-60 cytotoxicity, non-small cell lung cancer; conditions: Homo sapiens; NCI-60, selected value
Protocol: as §1

[10] = test system: colon cancer cell lines; experiment: NCI-60 cytotoxicity, colon cancer; conditions: Homo sapiens; NCI-60, selected value
Protocol: as §1

[11] = test system: ovarian cancer cell lines; experiment: NCI-60 cytotoxicity, ovarian cancer; conditions: Homo sapiens; NCI-60, selected value
Protocol: as §1

[12] = test system: leukemia cancer cell lines; experiment: NCI-60 cytotoxicity, leukemia; conditions: Homo sapiens; NCI-60, selected value
Protocol: as §1

[13] = test system: melanoma cell lines; experiment: NCI-60 cytotoxicity, melanoma; conditions: Homo sapiens; NCI-60, selected value
Protocol: as §1

SMILES | IC50 [1] [nM] | IC50 ([2]; 72 h) [nM] | IC50 ([3]; 72 h) [nM] | one dose, mean growth % [4] [%] | GI50 [5] [nM] | GI50 [6] [nM] | GI50 [7] [nM] | IC50 [2] [nM] | GI50 [8] [nM] | GI50 [9] [nM] | GI50 [10] [nM] | IC50 [3] [nM] | GI50 [11] [nM] | GI50 [12] [nM] | GI50 [13] [nM]
CCC(C)[C@H](NC(=O)[C@H]1CCCCN1C)C(=O)N(C)[C@H](C(=O)NC12CC(C(=O)N[C@@H](Cc3ccccc3)C[C@H](C)C(=O)OC)(C1)C2)C(C)C (stereo in doubt) [Tb19, Methyl (2S,4R)-4-(3-((S)-2-((2S,3S)—N,3-dimethyl-2-((R)-1-methylpiperidine-2 carboxamido)pentan amido)-3-methylbutanamido)bicyclo[1.1.1]pentane-1-carboxamido)-2-methyl-5-phenylpentanoate] | > 50 | > 50 | > 50 | 100.82 | – | – | – | – | – | – | – | – | – | – | –
CCC(C)[C@H](NC(=O)CN(C)C)C(=O)N(C)[C@H](C(=O)NC12C3C4C1C1C2C3C41C(=O)N[C@@H](Cc1ccccc1)C[C@H](C)C(=O)OC)C(C)C (stereo in doubt) [Tb18, Methyl (2S,4R)-4-(4-((S)-2-((2S,3S)-2-(2-(dimethylamino)acetamido)-N,3-dimethylpentanamido)-3-methylbutanamido)cubane-1-carboxamido)-2-methyl-5-phenylpentanoate] | > 50 | > 50 | > 50 | 98.48 | – | – | – | – | – | – | – | – | – | – | –
CCC(C)[C@H](NC(=O)c1ccccn1)C(=O)N(C)[C@H](C[C@@H](OC(C)=O)c1nc(C(=O)NC23C4C5C2C2C3C4C52C(=O)OC)cs1)C(C)C (stereo in doubt) [Tb12, Methyl 4-(2-((1R,3R)-1-acetoxy-3-((2S,3S)—N,3-dimethyl-2-(picolinamido)pentanamido)-4-methyl-pentyl)thiazole-4-carboxamido)cubane-1-carboxylate] | > 50 | > 50 | > 50 | 84.90 | – | – | – | – | – | – | – | – | – | – | –
CC[C@@H](C)[C@H](NC(=O)[C@H]1CCCCN1C)C(=O)N(C)[C@H](C(=O)NC12C3C4C1C1C2C3C41C(=O)N[C@@H](Cc1ccccc1)C[C@H](C)C(=O)OC)C(C)C (stereo partly drawn) [Tb17, Methyl (2S,4R)-4-(4-((S)-2-((2S,3S)—N,3-dimethyl-2-((R)-1-methylpiperidine-2-carboxamido)penta-namido)-3-methylbutanamido)cubane-1-carboxamido)-2-methyl-5-phenylpentanoate] | > 50 | > 50 | > 50 | 97.37 | – | – | – | – | – | – | – | – | – | – | –
CCC(C)[C@H](NC(=O)c1ccccn1)C(=O)N(C)[C@H](C[C@@H](OC(C)=O)c1nc(C(=O)NC23CC(C(=O)OC)(C2)C3)cs1)C(C)C (stereo in doubt) [Tb15, Methyl 3-(2-((1R,3R)-1-acetoxy-3-((2S,3S)—N,3-dimethyl-2-(picolinamido)pentanamido)-4-methyl-pentyl)thiazole-4-carboxamido)bicyclo[1.1.1]pentane-1-carboxylate] | > 50 | > 50 | > 50 | 94.38 | – | – | – | – | – | – | – | – | – | – | –
CC[C@H](C)[C@H](NC(=O)[C@H]1CCCCN1C)C(=O)N(C)[C@H](C[C@@H](OC(C)=O)c1nc(C(=O)N[C@@H](Cc2ccccc2)C[C@H](C)C(=O)O)cs1)C(C)C [Tb1, N^14-desacetoxytubulysin H] | > 10 | 0.34 | 0.02 | – | 0.147 | 0.339 | 0.548 | 0.34 | 0.305 | 0.347 | 0.269 | 0.02 | 0.234 | 0.264 | 0.074
COC(=O)[C@@H](C)C[C@H](Cc1ccccc1)NC(=O)c1csc([C@@H](C[C@H](C(C)C)N(C)C(=O)[C@@H](NC(=O)CN(C)C)C2CC2)OC(C)=O)n1 [Tb21, Methyl (2S,4R)-4-(2-((6S,9R,11R)-6-cyclopropyl-9-isopropyl-2,8-dimethyl-4,7,13-trioxo-12-oxa-2,5,8-triazatetradecan-11-yl)thiazole-4-carboxamido)-2-methyl-5-phenylpentanoate] | > 50 | 16.8 | > 10 | – | 4.04 | 34.6 | 23.2 | – | 24.1 | 6.62 | 23.9 | – | 5.79 | 1.65 | 2.23
CC[C@@H](C)[C@H](NC(=O)CN(C)C)C(=O)N(C)[C@H](C[C@@H](OC(C)=O)c1nc(C(=O)NC23CC(C(=O)OC)(C2)C3)cs1)C(C)C [Tb16] | > 50 | > 50 | > 50 | – | 123 | 303 | 186 | – | 127 | 85 | 98.1 | – | 99.1 | 15.1 | 46.1
COC(=O)[C@@H](C)C[C@H](Cc1ccccc1)NC(=O)c1csc([C@@H](C[C@H](C(C)C)N(C)C(=O)[C@@H](NC(=O)C23CC(NC(C)=O)(C2)C3)C2CC2)OC(C)=O)n1 [Tb22, Methyl (2S,4R)-4-(2-((1R,3R)-3-((S)-2-(3-acetamidobicyclo[1.1.1]pentane-1-carboxamido)-2-cyclopropyl-N-methylacetamido)-1-acetoxy-4-methylpentyl)thiazole-4-carboxamido)-2-methyl-5-phenylpentanoate] | > 50 | > 50 | > 50 | 49.38 | – | – | – | – | – | – | – | – | – | – | –
CC[C@H](C)[C@H](NC(=O)c1ccccn1)C(=O)N(C)[C@H](C[C@@H](OC(C)=O)c1nc(C(=O)N[C@@H](Cc2ccccc2)C[C@H](C)C(=O)OC)cs1)C(C)C [Tb3, (2S,4R)-Methyl 4-(2-((1R,3R)-1-acetoxy-3-((2S,3S)—N,3-dimethyl-2-(picolinamido)pentanamido)-4-methylpentyl)thi-azole-4-carboxamido)-2-methyl-5-phenylpentanoate] | > 50 | > 50 | > 50 | – | > 1000 | > 1000 | > 1000 | – | > 1000 | > 1000 | > 1000 | – | > 1000 | > 1000 | > 1000
